Publication PMC7176436, “Post-translational regulation of retinal IMPDH1 in vivo to adjust GTP synthesis to illumination conditions” (eLife, 2020)

Biological target: T1, IMPDH1 (murine retinal) (Mus musculus, UniProt P50096)
T1 construct: native, murine retina
Test: IMPDH1 spicule formation in retinas treated with […] MPA; SDS-PAGE mobility shift after injection of its prodrug MMF
Assay type: cell-based

T1 sequence (P50096 whole entry): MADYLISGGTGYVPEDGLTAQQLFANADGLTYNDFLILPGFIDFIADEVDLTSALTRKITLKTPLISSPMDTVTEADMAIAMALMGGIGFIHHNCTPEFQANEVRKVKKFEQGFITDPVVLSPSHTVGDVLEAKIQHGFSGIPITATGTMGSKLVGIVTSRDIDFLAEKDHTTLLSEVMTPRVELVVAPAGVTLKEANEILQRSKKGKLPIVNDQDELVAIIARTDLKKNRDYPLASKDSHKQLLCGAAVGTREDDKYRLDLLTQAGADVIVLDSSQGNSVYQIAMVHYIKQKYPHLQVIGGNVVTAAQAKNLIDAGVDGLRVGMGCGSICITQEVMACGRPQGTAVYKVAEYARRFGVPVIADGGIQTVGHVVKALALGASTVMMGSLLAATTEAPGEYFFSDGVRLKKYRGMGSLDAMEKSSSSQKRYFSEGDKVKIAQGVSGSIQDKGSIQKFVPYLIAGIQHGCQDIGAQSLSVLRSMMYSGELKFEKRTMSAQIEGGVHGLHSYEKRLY

COc1c(C)c2c(c(O)c1C/C=C(\C)CCC(=O)O)C(=O)OC2 [mycophenolic acid]
IMPDH1 spicule formation in retinas treated with 10 μM MPA; SDS-PAGE mobility sh: MPA inhibition of IMPDH1 resulted in the formation and accumulation of IMPDH1 spicules with time
